Test results reported in article PMC11284088, “Synthesis and biochemical characterization of naphthoquinone derivatives targeting bacterial histidine kinases” (The Journal of Antibiotics, 2024).
pIC50: −log10 of the molar value. “Also recorded” adds a separate entry of the source. Like-named read-outs stand apart in the source and are kept apart here.

Experiments:
WalK = molecular target: T1, WalK (Bacillus subtilis, UniProt Q45614); assay: Inhibition of WalK autophosphorylation; type: biochemical; set-up: key to WalK: WalK + inhibitory effect against WalK; conditions: for pIC50: against WalK from B. subtilis, autophosphorylation, N.I. = no inhibition, read-out: IC50; for inhibitory activity against WalK: in words; for WalK: summary class
T1 construct: His6 (N); made in house; host or cells: E. coli BL21(DE3)
T1 sequence (Q45614 207-611): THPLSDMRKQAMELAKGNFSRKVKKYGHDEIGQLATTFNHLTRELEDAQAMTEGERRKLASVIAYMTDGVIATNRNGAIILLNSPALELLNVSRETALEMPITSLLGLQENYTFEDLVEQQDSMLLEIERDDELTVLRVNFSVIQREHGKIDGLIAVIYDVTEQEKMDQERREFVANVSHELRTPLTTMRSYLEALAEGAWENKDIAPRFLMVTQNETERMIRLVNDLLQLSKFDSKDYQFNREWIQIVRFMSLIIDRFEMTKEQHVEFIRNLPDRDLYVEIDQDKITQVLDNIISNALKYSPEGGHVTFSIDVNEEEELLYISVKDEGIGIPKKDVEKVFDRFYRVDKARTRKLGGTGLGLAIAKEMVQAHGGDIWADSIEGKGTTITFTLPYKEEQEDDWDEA
Protocol: (§1) Autophosphorylation of WalK was conducted at 0.5 or 1 µM in a reaction mixture comprising 50 mM Tris-HCl (pH 8.5), 100 mM KCl, 5 mM MgCl2, 100 mM NH4Cl, 5% DMSO, and 40 µM ATP. The total reaction volume was 40 µl, and the incubation lasted for 30 min at 25 °C. To terminate the reaction, 40 µl of 2 × SDS-PAGE sample buffer was added, followed by a 10-min incubation at 37 °C. Subsequently, SDS-PAGE (10% acrylamide) was performed, and the samples were subjected to Western blotting using a PVDF membrane (Bio-Rad 1620177). The primary antibody used was anti-N3-phosphohistidine antibody (clone SC56-2) (EDM Millipore Corp), and the secondary antibody was goat anti-rabbit IgG-HRP (Abcam). A 2% bovine serum albumin (Sigma-Aldrich) solution served as the blocking reagent. Signals originating from phosphorylated HKs were detected using the HRP substrate (Immobilon Western Chemiluminescent HRP substrate, Millipore) and the Multi Imager II Multi Box (Bio Tools). Signal intensities were quantified with Image Analysis Software CS Analyzer 4 (ATTO). IC50 values (50% inhibitory concentrations) were determined using Prism 7 software (GraphPad).
(§2) In the assessment of naphthoquinone derivatives, the initial screening for inhibitory activity against WalK autophosphorylation was conducted at 50 or 100 µg ml^−1. Compounds displaying inhibitory activity were further examined to ascertain their IC50 values against WalK. For the chosen compounds, inhibition against EvgS, EnvZ, PhoQ, and CpxA HKs was also assessed. These reactions involved the use of 1 µM HK, 40 µM ATP, and a 30 min incubation at 25 °C.

EvgS (559–1197) D1009A = molecular target: T2, EvgS (559–1197) D1009A (Escherichia coli, UniProt P30855, D1009A); assay: Inhibition of EvgS autophosphorylation; type: biochemical, Escherichia coli K12; conditions: EvgS (559–1197) D1009A; 1 µM HK, 40 µM ATP, 30 min at 25 °C; read-out: IC50
T2 construct: EvgS (559–1197) D1009A; His6 (C); made in house; host or cells: E. coli BL21(DE3)
T2 sequence (P30855 559-1197 D1009A): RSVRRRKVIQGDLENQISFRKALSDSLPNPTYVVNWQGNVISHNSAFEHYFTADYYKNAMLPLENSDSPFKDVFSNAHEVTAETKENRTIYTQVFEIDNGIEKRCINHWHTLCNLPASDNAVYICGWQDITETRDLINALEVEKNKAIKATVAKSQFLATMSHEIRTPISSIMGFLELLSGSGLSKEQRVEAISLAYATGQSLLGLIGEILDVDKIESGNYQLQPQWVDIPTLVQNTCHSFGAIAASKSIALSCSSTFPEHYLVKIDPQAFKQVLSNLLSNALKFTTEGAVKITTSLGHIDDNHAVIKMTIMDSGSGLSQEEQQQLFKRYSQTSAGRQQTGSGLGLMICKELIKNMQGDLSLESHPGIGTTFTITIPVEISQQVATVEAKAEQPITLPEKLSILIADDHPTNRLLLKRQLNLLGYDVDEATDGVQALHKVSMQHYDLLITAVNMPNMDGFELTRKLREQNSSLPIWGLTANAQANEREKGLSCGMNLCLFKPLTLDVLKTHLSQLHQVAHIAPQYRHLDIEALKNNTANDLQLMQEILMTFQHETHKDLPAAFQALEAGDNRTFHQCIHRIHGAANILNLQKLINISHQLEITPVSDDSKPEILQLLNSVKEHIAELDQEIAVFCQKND
Protocol: as §1, §2

PhoQ = molecular target: T3, PhoQ (Escherichia coli, UniProt P23837); assay: Inhibition of PhoQ autophosphorylation; type: biochemical, Escherichia coli K12; conditions: PhoQ; 1 µM HK, 40 µM ATP, buffer pH 7.5; read-out: IC50
T3 construct: cytoplasmic regions of PhoQ (261-486) and CpxA (188-457); His6 (C); made in house; host or cells: E. coli BL21(DE3)
T3 sequence (P23837 261-486): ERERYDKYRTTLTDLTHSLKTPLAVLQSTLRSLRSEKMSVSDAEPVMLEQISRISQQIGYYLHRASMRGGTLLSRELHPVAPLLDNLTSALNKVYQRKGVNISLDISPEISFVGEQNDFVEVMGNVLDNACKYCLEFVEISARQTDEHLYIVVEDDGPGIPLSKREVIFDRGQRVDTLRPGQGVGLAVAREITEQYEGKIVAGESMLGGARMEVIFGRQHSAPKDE
Protocol: as §1, §2

iseA (formerly yoeB) = assay: RT-qPCR of iseA expression in B. subtilis cells; type: cell-based, B. subtilis 168; set-up: key to RT-qPCR: RT-qPCR + iseA gene expression was induced in B. subtilis 168; − no effect; conditions: for expression of iseA: exponentially growing cells, subMIC or MIC levels, 5 min, relative to DMSO control; for RT-qPCR: summary class, iseA gene expression in B. subtilis 168
Protocol: In brief, the cells were aerated and grown to an optical density at 660 nm of 0.3–0.4 at 37 °C. After the addition of DMSO or naphthoquinone derivatives, the cultures were further incubated for 5 min, cooled on ice for 1 min, and then harvested by centrifugation (2300 × g, 10 min, 4 °C). The cells were resuspended in 800 µl of RNA Lysis Buffer (SV Total RNA Isolation System, Z3100, Promega), transferred to a screw-capped tube containing 400 mg of glass beads (GB-01, TOMY), and disrupted using MicroSmash (MS-100, TOMY Medico) at 3000 rpm, 60 s ON/OFF for 6 cycles. RNA was then purified from 175 µl of the supernatant using the SV Total RNA Isolation System, followed by DNase I treatment (Turbo DNA-free^TM Kit, AM1907, Invitrogen) to remove any residual genomic DNA contamination. […] The expression levels of the genes were normalized using the 16S rRNA gene as an internal standard. Each assay was performed at least three times. Statistical analyses were conducted using Tukey’s multiple comparison test (GraphPad Prism 7).

[1] = molecular target: T4, WalK (207-611, B. subtilis) (Bacillus subtilis, UniProt Q45614); assay: Affinity selection/mass spectrometry, competition with waldiomycin; type: binding; set-up: key to AS/MS: AS/MS + competitive inhibition of the binding of waldiomycin to WalK; − increased binding of waldiomycin to WalK; conditions: for increase of MS signal of the collected waldiomycin compared to only waldiomycin: compound 30 or 100 µM; for AS/MS: summary class, effect on binding of waldiomycin to WalK
T4 construct: His6 (N); made in house; host or cells: E. coli BL21(DE3)
T4 sequence (Q45614 207-611): as the sequence (Q45614 207-611) above
Protocol: The affinity selection/mass spectrometry (AS/MS) is a method which can detect the binding of small compounds to proteins. This experiment was carried out following a previously established protocol (Fig. 5), with the exception of using Millipore 96-well filter plates (MSBVN1210) instead of MAHAN4510. In the experiment, 1 µM of WalK (207-611, B. subtilis, refer to Table S2) was combined and incubated with 5 µM of waldiomycin and competitor compounds in a reaction buffer. The buffer composition was as follows: 25 mM Tris-HCl (pH 8.0), 50 mM KCl, 50 mM NH4Cl, 5 mM MgCl2, 1 mM DTT, and 0.1% CHAPS. Following the incubation, the mixture was subjected to size-exclusion chromatography via centrifugation to eliminate free compounds. The protein that was eluted was then denatured by adding an equal volume of methanol/0.1% formic acid. The compounds that were subsequently released from the protein were detected using an LC/MS system. The concentrations of waldiomycin were calculated from the value of peak areas using calibration curve that covered the range of 1 nM to 1 µM (R^2 = 0.9991). The concentration of waldiomycin in the eluate of WalK and waldiomycin without competitor was 10.1 nM, and percentages to this value were calculated for other samples.

[2] = test system: HKs (EvgS, EnvZ, PhoQ, and CpxA); assay: Inhibition of class I HKs, summary over several HKs; type: biochemical, Escherichia coli K12; set-up: key to HKs: HKs + inhibitory effect against HKs (EvgS, EnvZ, PhoQ, and CpxA); conditions: for inhibition of EvgS, EnvZ, PhoQ, and CpxA: in words; for HKs: summary class, EvgS, EnvZ, PhoQ, and CpxA
Protocol: as §1, §2

| SMILES | pIC50 (WalK; listed as C00015) | inhibitory activity against WalK (WalK) | WalK (WalK) | pIC50 (EvgS (559–1197) D1009A) | pIC50 (PhoQ) | expression of iseA (iseA (formerly yoeB)) | RT-qPCR (iseA (formerly yoeB)) | increase of MS signal of the collected waldiomycin compared to only waldiomycin ([1]; waldiomycin 5 µM, WalK 1 µM) | binding to WalK competitive with that of waldiomycin ([1]; in words) | AS/MS [1] | inhibition of EvgS, EnvZ, PhoQ, and CpxA [2] | HKs [2] | pIC50 (WalK) | effect on the signal of waldiomycin ([1]; compound 30 and 100 µM, in words) | signal of waldiomycin compared to only waldiomycin with WalK ([1]; compound at 100 µM, waldiomycin 5 µM, WalK 1 µM) |
| --- | --- | --- | --- | --- | --- | --- | --- | --- | --- | --- | --- | --- | --- | --- | --- |
| O=C1C(Cl)=C(Nc2ccc(Cl)c(O)c2)C(=O)c2c(O)ccc(O)c21 [2h, 2-chloro-3-((4-chloro-3-hydroxyphenyl)amino)-5,8-dihydroxynaphthalene-1,4-dione] | 4.90 | comparable to waldiomycin | + | 4.59 | 4.37 | significantly increased; also recorded: significantly induced iseA gene expression | + | about twofold | not competitive; also recorded: enhanced the binding of waldiomycin to WalK | − | inhibited all four of these HKs | + |  |  |  |
| CC(C)(C)OC(=O)Nc1cccc(NC2=C(Cl)C(=O)c3c(O)ccc(O)c3C2=O)c1 [2l, tert-butyl (3-((3-chloro-5,8-dihydroxy-1,4-dioxo-1,4-dihydronaphthalen-2-yl)amino)phenyl)carbamate] |  | comparable to waldiomycin | + | 4.30 | 3.88 | significantly increased; also recorded: significantly induced iseA gene expression | + | about twofold | not competitive; also recorded: enhanced the binding of waldiomycin to WalK | − | inhibited all four of these HKs | + | 4.89 |  |  |
| Cc1noc2c1C(=O)c1c(O)ccc(O)c1C2=O [3b, 5,8-dihydroxy-3-methylnaphtho[2,3-d]isoxazole-4,9-dione] |  |  | + | 3.96 | 4.02 | significantly increased; also recorded: significantly induced iseA gene expression | + |  | competitive; also recorded: competitively interacted with waldiomycin | + | inhibited all four of these HKs | + | 3.73 | reduced the signal of waldiomycin in a dose-dependent manner | about 10% |
